Source: patent US8383619B2, “Pharmaceutical compounds” (Astex Therapeutics Limited, priority 2008, dated 2013)

Key:
[1] = Liver homogenate stability; format: in vitro ADME; settings: 1 μM, 37° C., 120 mins
From the text: (§1) The breakdown of a prodrug in vivo could occur in one or more of several different compartments including for example, but not limited to blood/plasma, liver, stomach, target tissue (e.g. tumour). The preferred location for optimum formation of the parent drug will depend on the disposition in vivo of the pro-drug and parent and an understanding of the optimum concentrations of each required in the circulation to maximise exposure to the active moiety in the target tissue. The potential for pro-drug molecules to deliver the active parent drug may be assessed in vitro by measuring the breakdown of a pro-drug in the presence of relevant body fluids. For the purpose of gaining a preliminary understanding of the stability of compounds of the invention to enzymatic hydrolysis in two such bodily compartments, compound turnover has been studied following incubation in whole blood and liver homogenate from mice and humans. The data obtained from these studies provide a preliminary understanding of which of the prodrugs are better able to deliver parent compound (i.e. are more rapidly broken down to parent compound) in these compartments. Further studies could also determine stability in other compartments (e.g. in the target tumours by measuring stability in tumour lysates).
Mouse livers were obtained from 20 male mice, strain: Balb/c from stock animals. Human liver tissue was obtained from 3 individuals sourced from a UK human tissue bank. The livers were stored frozen. The livers were defrosted and then homogenised to form a homogenate of approximately 30% (w/v) in phosphate buffer, 100 mM, pH 7.4 (referred to as ‘buffer’). Homogenates were kept on ice until use.
(§2) Each incubation consisted of a volume of 1 mL. Test compound dosing solutions were then spiked into each homogenate at a final compound concentration of 1 μM. Incubations were performed in the atmosphere in a shaking water bath at 37° C.
(§3) An aliquot of incubation samples was removed into an equal volume of ice-cold acetonitrile at various time points. Samples (whole blood/homogenate+acetonitrile) were centrifuged and aliquots of the supernatant were analysed by HPLC-MS/MS.
(§4) The compound X (2,4-dihydroxy-5-isopropyl-phenyl)-[5-(4-methyl-piperazin-1-ylmethyl)-1,3-dihydro-isoindol-2-yl]-methanone) and the compounds of Examples 1 to 24 were incubated in both whole blood and liver homogenate by Quotient Bioresearch (Rushden, UK). The percentage remaining of parent compound following incubation in whole blood/liver homogenate from human and mouse are set out in the table below.

Whole blood stability = format: in vitro ADME; settings: 1 μM, 37° C.
From the text: as §1
For these studies, human whole blood was collected from 3 male healthy volunteers in lithium heparin tubes. The blood was pooled and stored at room temperature for a maximum of 2 hours prior to initiation of incubations. Mouse blood was collected from 70 male mice, strain: Balb/c into lithium heparin tubes and pooled.
as §2, §3, §4

| SMILES | Percentage remaining Human Liver [1] | Percentage remaining Mouse Liver [1] | Percentage remaining Human blood (Whole blood stability; 120 mins) | Percentage remaining Mouse blood (Whole blood stability; 120 mins) | Percentage remaining Mouse blood (Whole blood stability; 60 mins (footnote *)) |
| --- | --- | --- | --- | --- | --- |
| CC(C)c1cc(C(=O)N2Cc3ccc(CN4CCN(C)CC4)cc3C2)c(O)cc1O [Compound X, (2,4-dihydroxy-5-isopropyl-phenyl)-[5-(4-methyl-piperazin-1-ylmethyl)-1,3-dihydro-isoindol-2-yl]-methanone] | 94% | 112% | 100% | 102% |  |
| COc1cc(O)c(C(C)C)cc1C(=O)N1Cc2ccc(CN3CCN(C)CC3)cc2C1 [Example 1, (4-Hydroxy-5-isopropyl-2-methoxy-phenyl)-[5-(4-methyl-piperazin-1-ylmethyl)-1,3-dihydro-isoindol-2-yl]-methanone] | 99% | 104% | 100% | 104% |  |
| COc1cc(O)c(C(=O)N2Cc3ccc(CN4CCN(C)CC4)cc3C2)cc1C(C)C [Example 2, (2-Hydroxy-5-isopropyl-4-methoxy-phenyl)-[5-(4-methyl-piperazin-1-ylmethyl)-1,3-dihydro-isoindol-2-yl]-methanone] | 85% | 100% | 122% | 129% |  |
| COc1cc(OC)c(C(C)C)cc1C(=O)N1Cc2ccc(CN3CCN(C)CC3)cc2C1 [Example 3, (5-Isopropyl-2,4-dimethoxy-phenyl)-[5-(4-methyl-piperazin-1-ylmethyl)-1,3-dihydro-isoindol-2-yl]-methanone] | 79% | 93% | 107% | 100% |  |
| C=CCOc1cc(O)c(C(C)C)cc1C(=O)N1Cc2ccc(CN3CCN(C)CC3)cc2C1 [Example 4, (2-Allyloxy-4-hydroxy-5-isopropyl-phenyl)-[5-(4-methyl-piperazin-1-ylmethyl)-1,3-dihydro-isoindol-2-yl]-methanone] | 92% | 63% | 109% | 106% |  |
| C=CCOc1cc(O)c(C(=O)N2Cc3ccc(CN4CCN(C)CC4)cc3C2)cc1C(C)C [Example 5, (4-Allyloxy-2-hydroxy-5-isopropyl-phenyl)-[5-(4-methyl-piperazin-1-ylmethyl)-1,3-dihydro-isoindol-2-yl]-methanone] | 81% | 86% | 115% | 124% |  |
| C=CCOc1cc(OCC=C)c(C(C)C)cc1C(=O)N1Cc2ccc(CN3CCN(C)CC3)cc2C1 [Example 6, (2,4-Bis-allyloxy-5-isopropyl-phenyl)-[5-(4-methyl-piperazin-1-ylmethyl)-1,3-dihydro-isoindol-2-yl]-methanone] | 94% | 75% | 105% | 125% |  |
| COCOc1cc(O)c(C(C)C)cc1C(=O)N1Cc2ccc(CN3CCN(C)CC3)cc2C1 [Example 7, [4-Hydroxy-5-isopropyl-2-(methoxymethyloxy)-phenyl]-[5-(4-methyl-piperazin-1-ylmethyl)-1,3-dihydro-isoindol-2-yl]-methanone] | 92% | 115% | 109% |  | 104% * |
